# Measurements taken from paper PMC4303209, “A novel phosphatidylinositol 3-kinase (PI3K) inhibitor directs a potent FOXO-dependent, p53-independent cell cycle arrest phenotype characterized by the differential induction of a subset of FOXO-regulated genes” (Breast Cancer Research : BCR, 2014).
# System: MCF-7 breast cancer cells
# Experiment: Microarray gene expression analysis (Agilent whole human genome 4 x 44K; compound vs DMSO, LIMMA log2 fold change)
# Type: cell-based
smiles,measurement,setting,value
Cn1ncc2c(N3CCOCC3)nc(-c3cccc(O)c3)nc21 [ETP-45658],PDGFRB log2FC,"gene PDGFRB (5159), apoptosis genes",0.022
same,PEG3 log2FC,"gene PEG3 (5178), apoptosis genes",0.028
same,PEG10 log2FC,"gene PEG10 (23089), apoptosis genes",0.064
same,PF4 log2FC,"gene PF4 (5196), apoptosis genes",-0.049
same,PHLDA3 log2FC,"gene PHLDA3 (23612), apoptosis genes",-0.007
same,PIK3CG log2FC,"gene PIK3CG (5294), apoptosis genes",-0.029
same,PKP1 log2FC,"gene PKP1 (5317), apoptosis genes",-0.004
same,PLEKHG5 log2FC,"gene PLEKHG5 (57449), apoptosis genes",0.079
same,PLSCR3 log2FC,"gene PLSCR3 (57048), apoptosis genes",-0.068
same,POLB log2FC,"gene POLB (5423), apoptosis genes",0.060
same,log2FC,"gene POLD4 (Gene 57804), cell cycle genes",-0.353
same,POR log2FC,"gene POR (5447), apoptosis genes",0.00332
same,POU3F4 log2FC,"gene POU3F4 (5456), apoptosis genes",-0.034
same,POU4F1 log2FC,"gene POU4F1, apoptosis genes",0.016
same,log2FC,"gene PPAT (Gene 10606), cell cycle genes",0.187
same,log2FC,"gene PPP1CA (Gene 5499), cell cycle genes",-0.227
same,log2FC,"gene PPP2CA (Gene 5515), cell cycle genes",-0.322
same,PPP2R1A log2FC,"gene PPP2R1A (5518), apoptosis genes",-0.055
same,PRAMEF8 log2FC,"gene PRAMEF8 (391002), apoptosis genes",0.019
same,PRAMEF10 log2FC,"gene PRAMEF10 (343071), apoptosis genes",0.00225
same,log2FC,"gene PRKACB (Gene 5567), cell cycle genes",0.355
same,log2FC PRKAG3,"gene PRKAG3 (Gene 53632), cell cycle genes",-0.00189
same,PRKRA log2FC,"gene PRKRA (8575), apoptosis genes",0.029
same,PRLR log2FC,"gene PRLR (5618), apoptosis genes",-0.012
same,PROC log2FC,"gene PROC (5624), apoptosis genes",0.006
same,PROP1 log2FC,"gene PROP1 (5626), apoptosis genes",-0.275
same,PSMA1 log2FC,"gene PSMA1 (5682), apoptosis genes",0.045
same,log2FC,"gene PSMA2 (Gene 5683), cell cycle genes",0.460
same,log2FC,"gene PSMA3 (Gene 5684), cell cycle genes",0.270
same,PSMA5 log2FC,"gene PSMA5 (5686), apoptosis genes",-0.038
same,log2FC PSMA5,"gene PSMA5 (Gene 5686), cell cycle genes",-0.038
same,PSMA7 log2FC,"gene PSMA7 (5688), apoptosis genes",0.359
same,log2FC PSMA7,"gene PSMA7 (Gene 5688), cell cycle genes",0.359
same,PSMB3 log2FC,"gene PSMB3 (5691), apoptosis genes",-0.030
same,log2FC,"gene PSMB4 (Gene 5692), cell cycle genes",0.132
same,PSMB7 log2FC,"gene PSMB7 (5695), apoptosis genes",-0.00851
same,log2FC PSMB7,"gene PSMB7 (Gene 5695), cell cycle genes",-0.00851
same,PSMB8 log2FC,"gene PSMB8 (5696), apoptosis genes",-0.045
same,PSMC4 log2FC,"gene PSMC4 (5704), apoptosis genes",-0.021
same,log2FC PSMC4,"gene PSMC4 (Gene 5704), cell cycle genes",-0.021
same,PSMD2 log2FC,"gene PSMD2 (5708), apoptosis genes",0.090
same,PSMD13 log2FC,"gene PSMD13 (5719), apoptosis genes",-0.031
same,log2FC,"gene PSMD14 (Gene 10213), cell cycle genes",0.447
same,log2FC,"gene PSME1 (Gene 5720), cell cycle genes",0.322
same,PSME2 log2FC,"gene PSME2 (5721), apoptosis genes",0.039
same,log2FC,"gene PTTG1 (Gene 9232), cell cycle genes",-0.269
same,PYCARD log2FC,"gene PYCARD (29108), apoptosis genes",-0.070
same,log2FC,"gene RAB11FIP3 (Gene 9727), cell cycle genes",-0.225
same,log2FC RAD51C,"gene RAD51C (Gene 5889), cell cycle genes",-0.019
same,log2FC RAE1,"gene RAE1 (Gene 8480), cell cycle genes",0.005
same,RAF1 log2FC,"gene RAF1 (5894), apoptosis genes",-0.038
same,log2FC,"gene RALA (Gene 5898), cell cycle genes",0.348
same,log2FC,"gene RALB (Gene 5899), cell cycle genes",0.324
same,RAMP2 log2FC,"gene RAMP2 (10266), apoptosis genes",-0.017
same,log2FC RANGAP1,"gene RANGAP1 (Gene 5905), cell cycle genes",-0.026
same,RAPSN log2FC,"gene RAPSN (5913), apoptosis genes",-0.022
same,RARB log2FC,"gene RARB (5915), apoptosis genes",0.00564
same,RASSF6 log2FC,"gene RASSF6 (166824), apoptosis genes",0.042
same,log2FC,"gene RBBP8 (Gene 5932), cell cycle genes",0.568
same,log2FC,"gene RBL1 (Gene 5933), cell cycle genes",0.284
same,log2FC,"gene RBM7 (Gene 10179), cell cycle genes",0.349
same,log2FC,"gene RCC1 (Gene 1104), cell cycle genes",-0.365
same,log2FC REEP4,"gene REEP4 (Gene 80346), cell cycle genes",-0.031
same,RET log2FC,"gene RET (5979), apoptosis genes",-0.021
same,RHOT2 log2FC,"gene RHOT2 (89941), apoptosis genes",-0.087
same,log2FC RPA2,"gene RPA2 (Gene 6118), cell cycle genes",0.00567
same,RPS3 log2FC,"gene RPS3 (6188), apoptosis genes",0.020
same,RPS6KA2 log2FC,"gene RPS6KA2 (6196), apoptosis genes",0.035
same,log2FC,"gene RPS6KB1 (Gene 6198), cell cycle genes",0.426
same,RRN3 log2FC,"gene RRN3 (653390), apoptosis genes",-0.022
same,log2FC,"gene RSPO1 (Gene 284654), cell cycle genes",-0.127
same,RYR2 log2FC,"gene RYR2 (6262), apoptosis genes",-0.020
same,S100A9 log2FC,"gene S100A9 (6280), apoptosis genes",0.039
same,S100A14 log2FC,"gene S100A14 (57402), apoptosis genes",0.034
same,log2FC,"gene SART1 (Gene 9092), cell cycle genes",-0.304
same,SCIN log2FC,"gene SCIN (85477), apoptosis genes",-0.012
same,log2FC,"gene SEH1L (Gene 81929), cell cycle genes",-0.373
same,SEMA5A log2FC,"gene SEMA5A (9037), apoptosis genes",-0.032
same,log2FC SENP2,"gene SENP2 (Gene 59343), cell cycle genes",-0.00743
same,SERINC3 log2FC,"gene SERINC3 (10955), apoptosis genes",0.046
same,SERPINE1 log2FC,"gene SERPINE1 (5054), apoptosis genes",-0.036
same,log2FC,"gene SESN1 (Gene 27244), cell cycle genes",0.237
same,SHF log2FC,"gene SHF (90525), apoptosis genes",0.026
same,SKIL log2FC,"gene SKIL (6498), apoptosis genes",0.046
same,log2FC SKIL,"gene SKIL (Gene 6498), cell cycle genes",0.046
same,log2FC,"gene SLBP (Gene 7884), cell cycle genes",0.333
same,SLC25A6 log2FC,"gene SLC25A6 (293), apoptosis genes",0.025
same,log2FC SLC26A8,"gene SLC26A8 (Gene 116369), cell cycle genes",-0.003
same,SLC40A1 log2FC,"gene SLC40A1 (30061), apoptosis genes",-0.005
same,SMAD1 log2FC,"gene SMAD1 (4086), apoptosis genes",-0.074
same,SMNDC1 log2FC,"gene SMNDC1 (10285), apoptosis genes",-0.102
same,SOD1 log2FC,"gene SOD1 (6647), apoptosis genes",0.073
same,SOS1 log2FC,"gene SOS1 (6654), apoptosis genes",0.035
same,SOX8 log2FC,"gene SOX8 (30812), apoptosis genes",-0.391
same,log2FC SPO11,"gene SPO11 (Gene 23626), cell cycle genes",0.008
same,SPTAN1 log2FC,"gene SPTAN1 (6709), apoptosis genes",0.094
same,log2FC,"gene SRC (Gene 6714), cell cycle genes",-0.316
same,log2FC,"gene STAG1 (Gene 10274), cell cycle genes",0.343
same,STK3 log2FC,"gene STK3 (6788), apoptosis genes",0.083
same,SULF1 log2FC,"gene SULF1 (23213), apoptosis genes",-0.096
same,log2FC,"gene SUPT5H (Gene 6829), cell cycle genes",-0.331
same,log2FC,"gene SUV39H2 (Gene 79723), cell cycle genes",-0.388
same,SYCP2 log2FC,"gene SYCP2 (10388), apoptosis genes",0.016
same,log2FC SYCP2,"gene SYCP2 (Gene 10388), cell cycle genes",0.016
same,log2FC SYCP3,"gene SYCP3 (Gene 50511), cell cycle genes",0.00367
same,log2FC,"gene TAF2 (Gene 6873), cell cycle genes",0.361
same,log2FC TAF6,"gene TAF6 (Gene 6878), cell cycle genes",0.055
same,log2FC,"gene TAOK2 (Gene 9344), cell cycle genes",-0.736
same,TEK log2FC,"gene TEK (7010), apoptosis genes",-0.008
same,log2FC,"gene TEX14 (Gene 56155), cell cycle genes",0.240
same,log2FC,"gene TEX15 (Gene 56154), cell cycle genes",0.238
same,TFAP2D log2FC,"gene TFAP2D (83741), apoptosis genes",-0.029
same,log2FC,"gene TGFA (Gene 7039), cell cycle genes",-0.305
same,TGFB2 log2FC,"gene TGFB2 (7042), apoptosis genes",-0.011
same,log2FC TGFB2,"gene TGFB2 (Gene 7042), cell cycle genes",-0.011
same,THEM4 log2FC,"gene THEM4 (117145), apoptosis genes",-0.054
same,log2FC THOC5,"gene THOC5 (Gene 8563), cell cycle genes",0.010
same,TMBIM4 log2FC,"gene TMBIM4 (51643), apoptosis genes",0.025
same,log2FC,"gene TMEM67 (Gene 91147), cell cycle genes",0.184
same,TMEM102 log2FC,"gene TMEM102 (284114), apoptosis genes",-0.101
same,TNFRSF1B log2FC,"gene TNFRSF1B (7133), apoptosis genes",-0.022
same,TNFRSF8 log2FC,"gene TNFRSF8 (943), apoptosis genes",0.055
same,TNFRSF10C log2FC,"gene TNFRSF10C (8794), apoptosis genes",0.00147
same,TNFSF8 log2FC,"gene TNFSF8 (944), apoptosis genes",-0.043
same,TNFSF9 log2FC,"gene TNFSF9 (8744), apoptosis genes",0.017
same,TNFSF10 log2FC,"gene TNFSF10 (8743), apoptosis genes",-0.021
same,TNFSF12 log2FC,"gene TNFSF12 (8742), apoptosis genes",0.112
same,TNFSF14 log2FC,"gene TNFSF14 (8740), apoptosis genes",0.017
same,TNFSF15 log2FC,"gene TNFSF15 (9966), apoptosis genes",0.027
same,TNFSF18 log2FC,"gene TNFSF18 (8995), apoptosis genes",0.00185
same,log2FC,"gene TP73 (Gene 7161), cell cycle genes",-0.503
same,log2FC,"gene TPD52L1 (Gene 7164), cell cycle genes",0.379
same,TPX2 log2FC,"gene TPX2 (22974), apoptosis genes",0.049
same,TRAF2 log2FC,"gene TRAF2 (7186), apoptosis genes",-0.056
same,TRAF3IP2 log2FC,"gene TRAF3IP2 (10758), apoptosis genes",-0.070
same,log2FC TRIP13,"gene TRIP13 (Gene 9319), cell cycle genes",0.007
same,log2FC,"gene TUBGCP6 (Gene 85378), cell cycle genes",-0.470
same,TXNDC5 log2FC,"gene TXNDC5 (81567), apoptosis genes",0.070
same,log2FC TYMS,"gene TYMS (Gene 7298), cell cycle genes",-0.0037
same,UBD log2FC,"gene UBD (10537), apoptosis genes",-0.00756
same,UBE2V2 log2FC,"gene UBE2V2 (7336), apoptosis genes",-0.109
same,UNC13B log2FC,"gene UNC13B (10497), apoptosis genes",0.009
same,VDAC2 log2FC,"gene VDAC2 (7417), apoptosis genes",0.033
same,VIM log2FC,"gene VIM (7431), apoptosis genes",0.051
same,VIP log2FC,"gene VIP (7432), apoptosis genes",-0.146
same,VNN1 log2FC,"gene VNN1 (8876), apoptosis genes",0.157
same,log2FC,"gene VRK1 (Gene 7443), cell cycle genes",0.426
same,WNK3 log2FC,"gene WNK3 (65267), apoptosis genes",0.012
same,log2FC,"gene WTAP (Gene 9589), cell cycle genes",-0.387
same,log2FC,"gene YY1AP1 (Gene 55249), cell cycle genes",0.220
same,ZBTB16 log2FC,"gene ZBTB16 (7704), apoptosis genes",0.144
same,log2FC ZC3H12D,"gene ZC3H12D (Gene 85313), cell cycle genes",-0.006
same,log2FC,"gene ZC3HC1 (Gene 51530), cell cycle genes",0.230
same,ZNF205 log2FC,"gene ZNF205 (7755), apoptosis genes",-0.229
same,ZNF443 log2FC,"gene ZNF443 (10224), apoptosis genes",-0.028
same,log2FC,"gene ZNF503 (Gene 84858), cell cycle genes",-0.229
same,ZNF622 log2FC,"gene ZNF622 (90441), apoptosis genes",0.041
